In PubChem BioAssay (NCI):
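Following 48 hours of exposure in 96-well plates, responses at five concentrations were used to interpolate endpoints linearly. GI50 = concentration required for 50% inhibition of growth. TGI marks complete inhibition of growth.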 Peptide text beside a SMILES is read from it. * marks the point of attachment. Boc = CC(C)(C)OC(=O)*

Legend:
Test in all cases: growth of human tumour cells (NCI), 48 h
UACC-62 melanoma = tested on: UACC-62 melanoma
SNB-75 CNS = tested on: SNB-75 CNS
HS 578T breast = tested on: HS 578T breast
HT29 colon = tested on: HT29 colon
KM12 colon = tested on: KM12 colon
SK-MEL-5 melanoma = tested on: SK-MEL-5 melanoma
MALME-3M melanoma = tested on: MALME-3M melanoma
UACC-257 melanoma = tested on: UACC-257 melanoma
TK-10 renal = tested on: TK-10 renal
SK-MEL-2 melanoma = tested on: SK-MEL-2 melanoma
RPMI-8226 leukemia = tested on: RPMI-8226 leukemia
BT-549 breast = tested on: BT-549 breast
HOP-62 NSCLC = tested on: HOP-62 NSCLC
MDA-MB-231 breast = tested on: MDA-MB-231 breast
SF-539 CNS = tested on: SF-539 CNS
DU-145 prostate = tested on: DU-145 prostate
HCT-15 colon = tested on: HCT-15 colon
A498 renal = tested on: A498 renal
HCC-2998 colon = tested on: HCC-2998 colon
A549 NSCLC = tested on: A549 NSCLC
M14 melanoma = tested on: M14 melanoma
U251 CNS = tested on: U251 CNS
OVCAR-5 ovarian = tested on: OVCAR-5 ovarian
LOX IMVI melanoma = tested on: LOX IMVI melanoma
NCI-H460 lung = tested on: NCI-H460 lung
MOLT-4 leukemia = tested on: MOLT-4 leukemia
SK-MEL-28 melanoma = tested on: SK-MEL-28 melanoma
NCI/ADR-RES ovarian = tested on: NCI/ADR-RES ovarian
OVCAR-4 ovarian = tested on: OVCAR-4 ovarian
SF-295 CNS = tested on: SF-295 CNS
MCF7 breast = tested on: MCF7 breast
RXF 393 renal = tested on: RXF 393 renal
OVCAR-3 ovarian = tested on: OVCAR-3 ovarian
CCRF-CEM leukemia = tested on: CCRF-CEM leukemia
PC-3 prostate = tested on: PC-3 prostate
EKVX NSCLC = tested on: EKVX NSCLC
IGROV1 ovarian = tested on: IGROV1 ovarian
MDA-MB-435 = tested on: MDA-MB-435
UO-31 renal = tested on: UO-31 renal
SN12C renal = tested on: SN12C renal
SNB-19 CNS = tested on: SNB-19 CNS
K-562 leukemia = tested on: K-562 leukemia
COLO 205 colon = tested on: COLO 205 colon
786-0 renal = tested on: 786-0 renal
NCI-H226 lung = tested on: NCI-H226 lung
T-47D breast = tested on: T-47D breast
NCI-H522 lung = tested on: NCI-H522 lung
CAKI-1 renal = tested on: CAKI-1 renal
SK-OV-3 ovarian = tested on: SK-OV-3 ovarian
SF-268 CNS = tested on: SF-268 CNS
HOP-92 NSCLC = tested on: HOP-92 NSCLC
SW-620 colon = tested on: SW-620 colon
HCT-116 colon = tested on: HCT-116 colon
NCI-H23 lung = tested on: NCI-H23 lung
OVCAR-8 ovarian = tested on: OVCAR-8 ovarian

CC(NC(=O)C(NC(=O)OC(C)(C)C)C(C)C)C(=O)N1CCCC1C(=O)O (stereo not drawn) (Boc-Val-Ala-Pro-OH; configuration not given here)
GI50 (UACC-62 melanoma): 36.2 µg/mL
GI50 (SNB-75 CNS): 0.0101 µg/mL
TGI (SNB-75 CNS): 0.09 µg/mL
GI50 (HS 578T breast): 38.1 µg/mL

Cc1c(C)c2ccc(OC/C=C3\CCC(=O)O3)cc2oc1=O
GI50 (HT29 colon): 16.6 µM
TGI (HT29 colon): 35.3 µM
GI50 (KM12 colon): 13.8 µM
TGI (KM12 colon): 31.3 µM
GI50 (SK-MEL-5 melanoma): 17.4 µM
TGI (SK-MEL-5 melanoma): 32.8 µM
GI50 (MALME-3M melanoma): 11.9 µM
TGI (MALME-3M melanoma): 26.7 µM
GI50 (UACC-257 melanoma): 15.9 µM
TGI (UACC-257 melanoma): 31.3 µM
GI50 (TK-10 renal): 9.79 µM
TGI (TK-10 renal): 23 µM
GI50 (SK-MEL-2 melanoma): 14.2 µM
TGI (SK-MEL-2 melanoma): 30.7 µM
GI50 (RPMI-8226 leukemia): 6.1 µM
TGI (RPMI-8226 leukemia): 40.9 µM
GI50 (BT-549 breast): 15.2 µM
TGI (BT-549 breast): 28.9 µM
GI50 (HOP-62 NSCLC): 15 µM
TGI (HOP-62 NSCLC): 28.8 µM
GI50 (MDA-MB-231 breast): 16 µM
TGI (MDA-MB-231 breast): 30 µM
GI50 (UACC-62 melanoma): 14.5 µM
TGI (UACC-62 melanoma): 28.3 µM
GI50 (SF-539 CNS): 16.1 µM
TGI (SF-539 CNS): 31.7 µM
GI50 (DU-145 prostate): 12.2 µM
TGI (DU-145 prostate): 26.1 µM
GI50 (HCT-15 colon): 5.4 µM
TGI (HCT-15 colon): 20.2 µM
GI50 (A498 renal): 17.9 µM
TGI (A498 renal): 37.1 µM
GI50 (HCC-2998 colon): 18.3 µM
TGI (HCC-2998 colon): 33 µM
GI50 (A549 NSCLC): 16.9 µM
TGI (A549 NSCLC): 31.9 µM
GI50 (M14 melanoma): 11.4 µM
TGI (M14 melanoma): 24.7 µM
GI50 (U251 CNS): 15.7 µM
TGI (U251 CNS): 29.3 µM
GI50 (OVCAR-5 ovarian): 16.5 µM
TGI (OVCAR-5 ovarian): 31.1 µM
GI50 (LOX IMVI melanoma): 15.2 µM
TGI (LOX IMVI melanoma): 29.4 µM
GI50 (NCI-H460 lung): 16.4 µM
TGI (NCI-H460 lung): 35.6 µM
GI50 (MOLT-4 leukemia): 19.8 µM
TGI (MOLT-4 leukemia): > 100 µM
GI50 (SK-MEL-28 melanoma): 14.3 µM
TGI (SK-MEL-28 melanoma): 28.1 µM
GI50 (NCI/ADR-RES ovarian): 16.9 µM
TGI (NCI/ADR-RES ovarian): 35.7 µM
GI50 (OVCAR-4 ovarian): 12.6 µM
TGI (OVCAR-4 ovarian): 28.9 µM
GI50 (SF-295 CNS): 20.5 µM
TGI (SF-295 CNS): 45 µM
GI50 (MCF7 breast): 11 µM
TGI (MCF7 breast): 32.5 µM
GI50 (RXF 393 renal): 14.2 µM
TGI (RXF 393 renal): 28.2 µM
GI50 (OVCAR-3 ovarian): 15.8 µM
TGI (OVCAR-3 ovarian): 30.3 µM
GI50 (CCRF-CEM leukemia): 17.4 µM
TGI (CCRF-CEM leukemia): 58.4 µM
GI50 (PC-3 prostate): 13.4 µM
TGI (PC-3 prostate): 31 µM
GI50 (EKVX NSCLC): 18.7 µM
TGI (EKVX NSCLC): 40 µM
GI50 (IGROV1 ovarian): 14.2 µM
TGI (IGROV1 ovarian): 28.9 µM
GI50 (MDA-MB-435): 17.1 µM
TGI (MDA-MB-435): 34.6 µM
GI50 (SNB-75 CNS): 12.3 µM
TGI (SNB-75 CNS): 24.8 µM
GI50 (UO-31 renal): 10.6 µM
TGI (UO-31 renal): 22.4 µM
GI50 (SN12C renal): 18.2 µM
TGI (SN12C renal): 43 µM
GI50 (SNB-19 CNS): 17.2 µM
TGI (SNB-19 CNS): 35.9 µM
GI50 (K-562 leukemia): 29.1 µM
TGI (K-562 leukemia): 88.7 µM
GI50 (COLO 205 colon): 16.4 µM
TGI (COLO 205 colon): 48.9 µM
GI50 (786-0 renal): 5.35 µM
TGI (786-0 renal): 20.8 µM
GI50 (NCI-H226 lung): 18.9 µM
TGI (NCI-H226 lung): 40.8 µM
GI50 (T-47D breast): 14.5 µM
TGI (T-47D breast): 47.8 µM
GI50 (NCI-H522 lung): 10.2 µM
TGI (NCI-H522 lung): 23.7 µM
GI50 (CAKI-1 renal): 15.3 µM
TGI (CAKI-1 renal): 30.6 µM
GI50 (SK-OV-3 ovarian): 26.5 µM
TGI (SK-OV-3 ovarian): 93.1 µM
GI50 (SF-268 CNS): 17 µM
TGI (SF-268 CNS): 46.1 µM
GI50 (HOP-92 NSCLC): 15 µM
TGI (HOP-92 NSCLC): 31.2 µM
GI50 (HS 578T breast): 20.2 µM
TGI (HS 578T breast): 55.9 µM
GI50 (SW-620 colon): 18 µM
TGI (SW-620 colon): 40 µM
GI50 (HCT-116 colon): 13.3 µM
TGI (HCT-116 colon): 26.3 µM
GI50 (NCI-H23 lung): 15.4 µM
TGI (NCI-H23 lung): 29.6 µM
GI50 (OVCAR-8 ovarian): 16.5 µM
TGI (OVCAR-8 ovarian): 34.8 µM
